Read-outs that look alike come from different tables or passages of the source.
How the values were obtained:
ALL CD34+ cells = assay: Viability of ALL CD34+ cells; format: cell-based; conditions: Homo sapiens
Source text: (§1) Fresh bone marrow (BM) cells were obtained from 38 patients with CML and 5 non-leukemic donors, 25 AML, 17 ALL, and 8 normal specimens with informed consent according to the Declaration of Helsinki. Approval was obtained from Institutional Review Board at the School of Medicine in Shanghai Jiao Tong University. BM mononuclear cells were isolated by Ficoll density gradient centrifugation (Shanghai Second Reagent Factory, Shanghai, China). CD34^+ Cell were selected using EasySep® Human CD34 Positive Selection kit (Stem Cell Technologies, Vancouver, BC, Canada) according to the manufacturer's instructions. The purity of CD34 cells ranged between 92 and 98% in all samples detennined by flow cytometry. The CD34^+ cells were cultured in a serum-free medium (StemPro 34; Gibco BRL, Gaithersburg, Md.) supplemented with growth factors (PeproTech, London, United Kingdom) (20). The growth factors consisted of GM-CSF (200 pg/mL), G-CSF (1 ng/mL); SCF (200 pg/mL); LIF (50 pg/mL), MIP-1α (200 pg/mL) and IL-6 (1 ng/mL).
Primitive AML and CML subpopulations (CD34^+ cells) were identified using CD34-PE in combination with CD38-APC, and followed by double-labeling with 7AAD and Annexin V antibodies for apoptosis assessment. […] Subsequently, the samples were incubated at room temperature for 15 minutes and analyzed by flow cytometry. […]

HL60 cells [1] = assay: Intracellular ROS accumulation, DCFH-DA staining, HL60 cells; format: cell-based; conditions: 3 h; for increase of ROS level: proliferating HL60 cells; for fold change of ROS: quiescent HL60 cells
Experimental: (§2) HL60 cells were cultured in RPMI 1640 supplemented (i) with or (ii) without 10% fetal bovine serum to obtain proliferating and quiescent leukemia cells respectively. Serum-deprived quiescent leukemic cells and proliferating leukemic cells were then cultured in media containing 0.5% FBS, and treated with 1 μM and 2.5 μM fenretinide, and also with chemotherapeutics as controls, 20 μM idarubicin (IDA) and 5 μM cytarabine (Ara-C).
(§3) The intracellular generation of reactive oxygen species (ROS) was measured using of the oxidation-sensitive fluorescent dye 2,7-dichlorofluorescin diacetate (DCFH-DA) (Molecular Probes). After 3 h exposure of fenretinide, 2×10^5 cells were harvested and washed once with PBS, then loaded with 1 ml PBS containing 10 μM of DCFH-DA. The cells were then incubated at 37° C. for 30 min and the fluorescence intensity was measured at 530 nm.
(§4) To examine the effects of fenretinide on proliferating and quiescent leukemia cells, HL60 cells were chosen as serum deprived quiescent leukemic cell model obtained when incubated in RPMI 1640 without serum for 48 h, with G0/G1 phase cells (being in quiescent state) accounting up to 59.9%. Serum-deprived quiescent leukemic cells and proliferating leukemic cells were then cultured in media containing 0.5% FBS, and treated with 1 μM and 2.5 μM fenretinide, and also with chemotherapeutics as controls, 20 μM idarubicin (IDA) and 5 μM cytarabine (Ara-C). […] Fenretinide induces intracellular production of ROS, lowers mitochondrial transmembrane potential (MTP), and eventually leads to apoptosis in a variety of malignancies. We measured MTP induced by fenretinide in proliferating and quiescent HL60 cells, as examined through rhodamine 123 and propidium iodide staining and followed by flow cytometry analysis. […] We further measured intracellular ROS abundance induced by fenretinide. […] After incubation with 1 μM and 2.5 μM fenretinide for 3 h, the ROS level of proliferating cells increased by 1.77 and 2.6 fold, respectively.

HL60 cells [2] = assay: Mitochondrial transmembrane potential (MTP) assay, Rh123/PI, HL60 cells; format: cell-based; conditions: serum-deprived quiescent versus proliferating HL60 cells, fenretinide
Experimental: as §2, §4

AML CD34+ cells = assay: Apoptosis/viability of AML CD34+ cells (annexin-V FITC/7AAD); format: cell-based, human; conditions: for viability at 5 µM: 5 μM fenretinide
Source text: as §1
Primitive AML and CML subpopulations (CD34^+ cells) were identified using CD34-PE in combination with CD38-APC, and followed by double-labeling with 7AAD and Annexin V antibodies for apoptosis assessment. The CD34^+ cells were first stained with antibodies against the surface markers CD34-PE and CD38-APC (Beckman Coulter, Fullerton, Calif.) and incubated at room temperature for 15 minutes. Cells were then washed with cold PBS and resuspended in 200 μL annexin V 1×binding buffer (10 mM HEPES/NaOH, pH 7.4, 140 mM NaCl, 2.5 mM CaCl2), 5 μL AnnexinV-FITC (BD Phanningen, San Diego, Calif.) and 7-aminoactinomycin (7-AAD, 0.25 mg/mL) (Molecular Probes, Eugene, Oreg.). Subsequently, the samples were incubated at room temperature for 15 minutes and analyzed by flow cytometry.
Primary acute leukemia cells from specimens including AML and ALL are mostly quiescent, especially for the subpopulations of leukemic CD34^+ cells (Guan and Hogge, 2000). To verify if this quiescent leukemia cells are sensitive to fenretinide, we compared the effects of fenretinide on primary leukemia versus normal specimens during short-term suspension culture. CD34^+ cells were isolated from primary acute leukemia specimens, and subjected to DNA content analysis through propidium iodide staining and followed by flow cytometry. The majority of isolated CD34^+ cells from AML and ALL were in G0/G1 phase of the cell cycle, indicating the quiescent feature of leukemia CD34^+ cells (FIG. 4A). Then, apoptosis profiles of AML CD34^+ cells and normal CD34^+ cells were examined through annexin-V FITC and 7AAD double staining (FIG. 4B).

[3] = system: K562, HL60 and NB4 leukemia cell lines; assay: Apoptosis versus intracellular ROS level in leukemia cell lines; format: cell-based; conditions: series of concentrations
Experimental: 2×10^5 cultured cells were used for evaluating apoptosis using an ApoAlert Annexin V-FITC Apoptosis Kit (BD Biosciences). Cells were washed once by PBS, resuspended in 200 μl Annexin-V binding buffer, and then stained with Annexin V-FITC 5 μl, PI 10 μl for 15 min at room temperature in the dark. Cells were subsequently analyzed by flow cytometry.
as §3
Fenretinide induces ROS-dependent apoptosis is the common feature in a variety of tumors (Sun et al., 1999). Here, we extensively explored the relationship between intracellular ROS levels and apoptosis outcomes induced by fenretinide in a panel of leukemia cell lines, including K562, HL60 and NB4. The intracellular ROS levels in leukemic cells were evaluated by DCFH-DA staining, and apoptosis of leukemic cells induced by fenretinide treatment with a series of concentrations was examined through annexin-V FITC and 7AAD double staining.

CC1=C(/C=C/C(C)=C/C=C/C(C)=C/C(=O)Nc2ccc(O)cc2)C(C)(C)CCC1 [fenretinide, N-(4-hydroxyphenyl)retinamide]
viability at 5 µM (ALL CD34+ cells; 5 μM fenretinide): 58% | viability at 7.5 µM (ALL CD34+ cells; 7.5 μM fenretinide): 20.9% | increase of ROS level (HL60 cells [1]; 1 μM fenretinide): 1.77 fold | increase of ROS level (HL60 cells [1]; 2.5 μM fenretinide): 2.6 fold | fold change of ROS (HL60 cells [1]; 1 μM fenretinide): 3.83 fold | fold change of ROS (HL60 cells [1]; 2.5 μM fenretinide): 4.3 fold | mitochondrial transmembrane potential (MTP) (HL60 cells [2]): more significant reduced MTP | viability at 5 µM (AML CD34+ cells; Homo sapiens, 18 h, read-out: viability of most resistant AML specimen (AML #8)): 89.7% | viability at 5 µM (AML CD34+ cells; Homo sapiens, 18 h, read-out: viability of most sensitive AML specimen (AML #20)): 0.5% | viability at 5 µM (AML CD34+ cells; Homo sapiens, 18 h in culture, read-out: mean viability of AML CD34+ cells): 45.4% | viability at 7.5 µM (AML CD34+ cells; Homo sapiens, 7.5 μM fenretinide, read-out: mean viability of AML CD34+ specimens): 12.2% | apoptosis induction in AML CD34+ cells (AML CD34+ cells; short-term suspension culture): time- and dose-dependant manner | susceptibility to fenretinide-induced apoptosis versus level of intracellular ROS [3]: positively correlated
